Experimental data: patent US8822409B2, “Compositions and uses thereof for the treatment of acute respiratory distress syndrome (ARDS) and clinical disorders associated with therewith” (Phylogica Limited, priority 2007, dated 2014)
Entries after “also recorded” stand apart in the source; their conditions may differ. Where no end group is shown, it is not given here. [ ]: non-standard residue; d: D form.

Experiments:
[1] = tested on: C57/BL6 mice given intranasal LPS (animal model of ARDS and sepsis); test: Neutrophil infiltration in BAL after intranasal peptide, LPS-induced mouse model of ARDS and sepsis (FIG. 1); format: in vivo; settings: repeated dose co-administered with LPS (10 μg/mouse), BAL 6 hours later, n=5
Method: FIG. 1 is a graphical representation showing the percentage of neutrophils (y-axis) in bronchoalveolar lavage (BAL) in 8-week to 12-week old C57/BL6 mice receiving various treatments indicated by numbers on the x-axis as follows:
Columns 1-4 (open bars): Animals (n=5 per group) received either no LPS (column 1) or a dose of LPS intranasally (10 μg/mouse) and BAL was performed 1 hour (column 2), 4 hours (column 3) or 6 hours (column 4) later. No peptide was administered to these animals.
Columns 5-7 (filled bars): Animals (n=5 per group) received an intranasal dose of 10 mg/kg body weight of retroinverted peptide analog D-PYC36-TAT (SEQ ID NO: 106; column 5) or D-PYC35-TAT (SEQ ID NO: 104; column 6), or 5 mg/kg body weight of retroinverted peptide analog D-PYC38-TAT (SEQ ID NO: 108; column 7), by a repeated dose of the same peptide analog for each group co-administered intranasally with LPS (10 μg/mouse) and BAL was performed 6 hours later.
Column 8 (hatched bars): Animals (n=5) received an intranasal dose of 10 mg/kg body weight of a scrambled version of SEQ ID NO: 106 designated D-PYC36scrambled-TAT followed 1 hour later by a repeated dose of the same peptide analog co-administered intranasally with LPS (10 μg/mouse) and BAL was performed 6 hours later.
BAL was performed on the animals using 1 ml GKN/0.2% BSA. Cell counts were obtained to determine total cell numbers and differential counts were obtained on cytocentrifuge slide preparations to elucidate the percentage neutrophils in BAL.
8-12 week old C57/B16 mice were purchased from the Animal Resource Center, Murdoch University, Western Australia and used for all experiments. All experiments were approved by the necessary institutional animal ethics committees and were performed in accordance with the National Health and Medical Research Council (NHMRC) Australian Code of Practice for the Care and Use of Animals for Scientific Purposes. […]

[2] = tested on: female C57/BL6 mice given intranasal LPS (animal model of ARDS and sepsis); test: Neutrophil infiltration in BAL after intravenous peptide injection, LPS-induced mouse model of ARDS and sepsis (FIG. 2); format: in vivo; settings: intravenous 10 mg/kg 20 min before intranasal LPS (40 μg/mouse), repeat injections 2 and 4 hours post-LPS, BAL 6 hours after LPS
Method: FIG. 2 is a graphical representation showing the percentage of neutrophils (y-axis) in bronchoalveolar lavage (BAL) in 8-week to 10-week old female C57/BL6 mice receiving various treatments indicated by numbers on the x-axis as follows:
Column 1 (naïve): Animals received no LPS and BAL was performed 6 hours later. No peptide was administered to these animals.
Column 2 (nil): Animals received an intranasal dose of E. coli LP (40 μg/mouse) and BAL was performed 6 hours later.
Column 3 (D36-TAT x1): Animals received a single intravenous injection of 10 mg/kg body weight of retroinverted peptide analog D-PYC36-TAT (SEQ ID NO: 106) followed 20 min later by an intranasal dose of LPS (40 μg/mouse). BAL was performed 6 hours after LPS administration.
Column 4 (D36-TATscr x1): Animals received a single intravenous injection of 10 mg/kg body weight of a peptide having a scrambled sequence relative to the retroinverted peptide analog D-PYC36-TAT (SEQ ID NO: 106) followed 20 min later by an intranasal dose of LPS (40 μg/mouse). BAL was performed 6 hours after LPS administration. […]

[3] = intranasal 10 mg/kg body weight 1 hour before LPS

| Substance | percentage of neutrophils in bronchoalveolar lavage (BAL) [1, 3] | percentage of neutrophils in bronchoalveolar lavage (BAL) [2] | percentage of neutrophils in bronchoalveolar lavage (BAL) ([1]; intranasal 5 mg/kg body weight 1 hour before LPS) |
| --- | --- | --- | --- |
| SEQ ID NO: 104: retroinverted peptide analog of SEQ ID NO: 57 fused to the TAT 10-mer with a linking glycine; AP-1 signaling inhibitor ([dR][dE][dR][dK][dS][dS][dS][dE][dI]GG[dS][dR][dI][dS][dQ][dY][dA]G[dR][dR][dR][dQ][dR][dR][dK][dK][dR]G; also: retro-inverso) | significantly reduced; also recorded: significantly-reduced |  |  |
| SEQ ID NO: 106: retroinverted peptide analog of SEQ ID NO: 59 fused to the TAT 10-mer with a linking glycine; AP-1 signaling inhibitor ([dP][dK][dI][dS][dQ][dY]G[dQ][dR][dR][dR]G[dQ][dL]GG[dR][dR][dR][dQ][dR][dR][dK][dK][dR]G) | significantly reduced; also recorded: significantly-reduced | significantly reduced; also recorded: significantly-reduced |  |
| SEQ ID NO: 108: retroinverted peptide analog of SEQ ID NO: 61 fused to the TAT 10-mer with a linking glycine; AP-1 signaling inhibitor ([dR][dH][dA][dP][dL][dA][dR]G[dS][dW][dR]G[dQ][dP][dQ][dQ]G[dP][dQ][dR][dR]G[dQ][dL]GG[dR][dR][dR][dQ][dR][dR][dK][dK][dR]G) |  |  | significantly reduced; also recorded: significantly-reduced |
